Experimental data taken from patent publication US20190161480A1, “Chemical Compounds” (GLAXOSMITHKLINE INTELLECTUAL PROPERTY DEVELOPMENT LIMITED, priority 2016, published 2019).
“Also recorded” adds a separate entry of the source.

How the values were obtained:
[1] = molecular target: PI3Kα (Homo sapiens, UniProt P42336); assay: PI3K HTRF assay, PI3K-alpha; assay type: biochemical; details: read-out: pIC50 PI3Kα (converted); note: 250 µM ATP
Protocol: (§1) The binding of compounds to PI3K-alpha/beta/delta/gamma is determined by homogeneous time resolved fluorescence (HTRF) assays as follows;
(§2) Briefly, solid compound is dissolved in 100% DMSO at a concentration of 2 mM. Dilutions are prepared in 100% DMSO using a 1 in 4 serial step dilution. The dilutions are transferred to black low volume Greiner assay plates ensuring that the DMSO concentration is constant across the plate at 1% (0.1 μL/well).
(§3) PI3K Reaction Buffer (contains 50 mM HEPES pH 7.0 (NaOH), 150 mM NaCl, 10 mM MgCl2, 2.3 mM sodium cholate, […] CHAPS made up in milliQ water). Fresh DTT is added at a final concentration of 1 mM on the day of use.
(§4) Enzyme solutions: 1× PI3K Assay Buffer containing: • 550 pM PI3K-Alpha enzyme (275 pM final assay concentration) • 800 pM PI3K-Beta enzyme (400 pM final assay concentration) • 3 nM PI3K-Delta enzyme (1.5 nM final assay concentration) • 10 nM PI3K-Gamma enzyme (5 nM final assay concentration)
(§5) These concentrations are optimal to achieve a signal:background of between 1.5-4.5. The enzyme solution is added to columns 1-24 (3 μL/well) and plates are incubated for 15 minutes at room temperature.
(§6) Substrate solution: 1× PI3K Assay Buffer containing: • PI3K-Alpha: 500 μM ATP, 20 μM PIP2 and 120 nM biotin-PIP3.
(§7) This is added to all wells and plates are incubated for 1 hour at room temperature.
(§8) Detection solution: PI3K Detection Buffer (contains 50 mM HEPES pH 7.0 (HCl), 150 mM NaCl, 2.3 mM sodium cholate, 10 μM CHAPS, 240 mM potassium fluoride) containing 2 mM DTT (2× final assay concentration), 90 nM GRP-1 PH domain, 300 nM Streptavidin-APC and 24 nM Europium-anti-GST (6× final assay concentrations).
(§9) This is mixed left at room temperature (protected from light).
(§10) STOP solution: PI3K STOP Buffer (contains 50 mM HEPES pH 7.0 (HCl), 150 mM NaCl, 2.3 mM sodium cholate, 10 μM CHAPS, 150 mM EDTA).
(§11) Detection solution is diluted 1:1 with STOP solution and added to all wells (3 μL/well). Plates are covered and incubated on the bench for 45-60 minutes.
(§12) Plates are read on a PerkinElmer Envision, measuring TR-FRET between the complex formed between the GST-tagged PH domain and biotinylated PIP3 which both recruit fluorophores (Europium-labelled anti-GST & Strep-APC respectively). In the […] of an inhibitor, this complex is disrupted by the competitive action of non-biotinylated PIP3 (formed in the assay by the phosphorylation of PIP2 by the kinase & ATP). From this, the ratio of acceptor/donor was calculated (λex=317 nm, Δem donor=615 nm, Δem acceptor=665 nm) and used for data analysis.

[2] = molecular target: PI3Kβ (Homo sapiens, UniProt P42338); assay: PI3K HTRF assay, PI3K-beta; assay type: biochemical; details: read-out: pIC50 PI3Kβ (converted); note: 400 µM ATP
Protocol: as §1, §2, §3, §4, §5, §6, §7, §8, §9, §10, §11, §12

[3] = molecular target: PI3Kγ (Homo sapiens, UniProt P48736); assay: PI3K HTRF assay, PI3K-gamma; assay type: biochemical; details: read-out: pIC50 PI3Kγ (converted); note: 15 µM ATP
Protocol: as §1, §2, §3, §4, §5, §6, §7, §8, §9, §10, §11, §12

[4] = molecular target: T1, PI3Kδ (Homo sapiens, UniProt O00329); assay: Protein mass spectrometry: covalent adduct assessment and competition experiment; assay type: binding
Protocol: Compounds were incubated with 1 μM protein in a 10:1 inhibitor:protein ratio in buffer containing 50 mM HEPES, pH 7.0 (NaOH), 150 mM NaCl, 10 mM MgCl2, 2.3 mM cholate, 10 μM CHAPS. After the desired time, the assays were quenched with a 10% formic acid solution, and analysed by LCMS using an Agilent 6224 TOF LC/MS equipped with Agilent 1200 Series autosampler. Analytes were separated on a Polymer Labs (Agilent) PLRP-S column (50 mm×1 mm internal diameter, 5 μm particle size). LC conditions were 0.5 mL·min^−1 flow rate, 70° C., 10 μL injection volume. Gradient elution with (A) water containing 0.2% (v/v) formic acid and (B) acetonitrile containing 0.2% (v/v) formic acid. Gradient conditions were initially 10% B, increasing to 30% after 0.5 min, and then linearly to 80% B over 4.5 min, prior to a 1.2 min flush with 100% B and then a 1.9 minute equilibration with 10% B prior to the next injection. Mass spectra were then deconvoluted using Agilent MassHunter Qualitative Analysis version B.06.00 over the mass range 70-170 kDa to obtain the intact protein mass.
A potent reversible ATP competitive inhibitor was incubated with 1 μM protein in a 10:1 inhibitor:protein ratio in buffer containing 50 mM HEPES, pH 7.0 (NaOH), 150 mM NaCl, 10 mM MgCl2, 2.3 mM cholate, 10 μM CHAPS at room temperature. […] The assay was quenched at 5 min and analysed using the procedure detailed above.

[5] = molecular target: T1, PI3Kδ; assay: PI3Kδ jump dilution experiment; assay type: biochemical; details: 15 min incubation, 100-fold dilution, read for 30 minutes
Protocol: Irreversibility of the PI3Kδ-Inhibitor complex, and reversibility of the non-covalent controls, was determined by jump-dilution assay as follows:
PI3Kδ enzyme was made up to a 100× assay concentration (final assay concentration=6 nM) in buffer solution (contains 50 mM HEPES pH 7.0 (NaOH), 150 mM NaCl, 10 mM MgCl2, 2.3 mM sodium cholate, 10 μM CHAPS made up in milliQ water).
100× enzyme solution was added to compound wells (20 μL/well), and incubated for 15 mins, after which point the assay was diluted 100-fold with commercially available ADP QUEST substrate solution, available from DiscoverX (calatog number: 90-0071), (3200 μL DiscoverX Reagent A, 6400 μL DiscoverX Reagent B, 1 mM ATP and 40 μM PIP2). Production of fluorescence signal was then measured immediately using a Tecan Safire II plate reader at 30 second intervals for 30 minutes (λex=544 nm, λem=590 nm).

[6] = system: PI3Kδ in CD4+ T cells; assay: Cellular washout in CD4+ T cells (αCD3 stimulation, IFNγ readout); assay type: cell-based, human; details: IC50 curve 48 h after washing cells versus no wash; five donors
Protocol: CD4+T cells were isolated from leukodepletion filter samples taken from healthy volunteers using Histopaque 1077 (Sigma Aldrich). Briefly, blood was allowed to drip into a 50 mL falcon tube and mixed with PBS (40 mL). 20 mL of diluted blood was then slowly layered onto 15 mL of Histopaque in a 50 mL falcon tube, which was then centrifuged at 800 rcf for 20 min at room temperature. The PBMC layer was then collected with a pasteur pipette into a new 50 mL falcon tube, and up to 50 mL of PBS was added. Cells were centrifuged at 300-400 rcf for 10 min at room temperature, supernatant was discarded and a second washing step was performed with PBS. Cells were then resuspended in 40 mL PBS+0.5% Bovine Serum Albumin (BSA). Isolation of CD4+T cells was performed according to manufacturer's protocol (Miltenyi Biotec, 130-096-533). 1×10^6 CD4+T cells were dispensed into a 24 well plate with a final volume of 1 mL per well. Compounds at 1000× the final assay concentration, or DMSO, were then added to wells and cells were incubated for 2 h. 2×10^5 cells and media was added to a 96-well plate (in duplicate) and classified as no-wash. […] Supernatant and cells were centrifuged at 800 rcf for 5 min and 120 μL of supernatant was collected and analysed using MSD IFNγ kit as detailed above for the human whole-blood assay. […]

T1 sequence (O00329 whole entry): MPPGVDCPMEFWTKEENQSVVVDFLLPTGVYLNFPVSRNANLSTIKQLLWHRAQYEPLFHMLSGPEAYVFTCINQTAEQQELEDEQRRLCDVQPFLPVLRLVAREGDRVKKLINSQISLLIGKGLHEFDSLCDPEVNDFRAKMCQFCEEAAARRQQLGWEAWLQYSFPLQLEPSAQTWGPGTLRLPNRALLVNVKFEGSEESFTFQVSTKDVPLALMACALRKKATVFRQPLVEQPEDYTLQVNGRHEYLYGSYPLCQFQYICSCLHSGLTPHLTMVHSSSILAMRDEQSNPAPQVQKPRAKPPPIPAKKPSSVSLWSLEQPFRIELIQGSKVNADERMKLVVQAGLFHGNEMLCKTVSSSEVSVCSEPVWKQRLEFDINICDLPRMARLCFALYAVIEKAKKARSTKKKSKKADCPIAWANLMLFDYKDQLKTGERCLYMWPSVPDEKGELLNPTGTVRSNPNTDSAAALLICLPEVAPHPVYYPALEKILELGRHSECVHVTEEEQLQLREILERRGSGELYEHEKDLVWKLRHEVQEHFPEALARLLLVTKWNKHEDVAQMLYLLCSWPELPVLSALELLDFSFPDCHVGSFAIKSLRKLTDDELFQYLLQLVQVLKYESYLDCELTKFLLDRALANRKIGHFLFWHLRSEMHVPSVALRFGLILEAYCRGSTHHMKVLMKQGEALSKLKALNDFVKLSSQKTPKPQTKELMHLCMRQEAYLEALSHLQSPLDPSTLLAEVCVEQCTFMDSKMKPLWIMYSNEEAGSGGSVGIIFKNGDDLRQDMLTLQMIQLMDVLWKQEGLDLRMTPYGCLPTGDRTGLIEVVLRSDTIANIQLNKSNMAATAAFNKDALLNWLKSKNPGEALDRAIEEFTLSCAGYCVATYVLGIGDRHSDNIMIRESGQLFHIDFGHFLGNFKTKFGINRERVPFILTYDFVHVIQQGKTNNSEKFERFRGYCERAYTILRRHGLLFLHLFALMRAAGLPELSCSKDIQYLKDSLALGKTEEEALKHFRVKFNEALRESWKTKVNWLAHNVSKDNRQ
T1 sequence (P27986 whole entry partner): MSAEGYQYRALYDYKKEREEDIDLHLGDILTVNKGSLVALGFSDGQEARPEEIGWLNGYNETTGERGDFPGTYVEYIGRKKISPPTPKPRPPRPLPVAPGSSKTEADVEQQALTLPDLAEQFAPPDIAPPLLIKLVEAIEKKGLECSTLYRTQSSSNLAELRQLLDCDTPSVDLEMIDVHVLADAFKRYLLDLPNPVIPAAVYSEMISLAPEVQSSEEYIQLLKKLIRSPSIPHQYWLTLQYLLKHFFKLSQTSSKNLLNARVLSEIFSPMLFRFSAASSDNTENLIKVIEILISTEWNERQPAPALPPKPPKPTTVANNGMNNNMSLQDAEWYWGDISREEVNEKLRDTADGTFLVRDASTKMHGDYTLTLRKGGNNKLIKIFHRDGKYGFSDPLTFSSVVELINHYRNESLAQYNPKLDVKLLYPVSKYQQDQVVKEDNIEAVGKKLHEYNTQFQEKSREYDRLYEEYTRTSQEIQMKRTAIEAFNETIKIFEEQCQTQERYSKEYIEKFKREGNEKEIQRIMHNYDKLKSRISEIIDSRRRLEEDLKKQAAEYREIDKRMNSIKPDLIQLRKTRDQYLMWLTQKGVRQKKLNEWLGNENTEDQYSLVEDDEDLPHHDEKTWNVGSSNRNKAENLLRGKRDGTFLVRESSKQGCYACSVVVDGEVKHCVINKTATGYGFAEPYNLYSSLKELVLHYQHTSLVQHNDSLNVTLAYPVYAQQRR
PI3Kγ, sequence (P48736 whole entry, species assumed): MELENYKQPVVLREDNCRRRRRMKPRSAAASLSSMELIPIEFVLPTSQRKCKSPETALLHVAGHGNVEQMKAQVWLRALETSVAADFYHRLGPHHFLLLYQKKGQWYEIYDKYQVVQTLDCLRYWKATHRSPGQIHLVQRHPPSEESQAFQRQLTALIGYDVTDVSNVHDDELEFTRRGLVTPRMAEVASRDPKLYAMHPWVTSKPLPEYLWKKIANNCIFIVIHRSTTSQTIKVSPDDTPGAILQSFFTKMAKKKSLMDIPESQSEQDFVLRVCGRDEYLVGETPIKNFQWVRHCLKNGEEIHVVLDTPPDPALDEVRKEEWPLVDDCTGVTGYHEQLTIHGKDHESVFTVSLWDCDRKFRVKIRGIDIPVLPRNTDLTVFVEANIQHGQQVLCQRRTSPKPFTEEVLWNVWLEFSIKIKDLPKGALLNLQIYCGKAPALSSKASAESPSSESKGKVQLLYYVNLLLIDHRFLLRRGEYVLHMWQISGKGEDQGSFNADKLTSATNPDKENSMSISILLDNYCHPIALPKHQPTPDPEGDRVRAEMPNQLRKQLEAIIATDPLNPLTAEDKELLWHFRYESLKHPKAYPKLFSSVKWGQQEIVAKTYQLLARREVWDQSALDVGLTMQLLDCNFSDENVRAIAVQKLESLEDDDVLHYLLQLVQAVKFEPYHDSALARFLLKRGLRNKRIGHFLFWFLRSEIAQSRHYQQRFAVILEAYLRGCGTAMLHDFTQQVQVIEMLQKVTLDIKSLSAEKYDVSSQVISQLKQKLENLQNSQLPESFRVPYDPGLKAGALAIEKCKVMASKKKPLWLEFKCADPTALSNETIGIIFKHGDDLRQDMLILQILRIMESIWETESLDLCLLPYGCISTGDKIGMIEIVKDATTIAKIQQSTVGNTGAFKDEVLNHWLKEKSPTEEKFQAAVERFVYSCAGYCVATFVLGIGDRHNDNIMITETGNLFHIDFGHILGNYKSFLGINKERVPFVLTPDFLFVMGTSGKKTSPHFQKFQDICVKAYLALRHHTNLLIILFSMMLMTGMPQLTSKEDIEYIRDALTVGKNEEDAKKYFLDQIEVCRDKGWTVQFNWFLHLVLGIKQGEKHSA
PI3Kβ, sequence (P42338 whole entry, species assumed): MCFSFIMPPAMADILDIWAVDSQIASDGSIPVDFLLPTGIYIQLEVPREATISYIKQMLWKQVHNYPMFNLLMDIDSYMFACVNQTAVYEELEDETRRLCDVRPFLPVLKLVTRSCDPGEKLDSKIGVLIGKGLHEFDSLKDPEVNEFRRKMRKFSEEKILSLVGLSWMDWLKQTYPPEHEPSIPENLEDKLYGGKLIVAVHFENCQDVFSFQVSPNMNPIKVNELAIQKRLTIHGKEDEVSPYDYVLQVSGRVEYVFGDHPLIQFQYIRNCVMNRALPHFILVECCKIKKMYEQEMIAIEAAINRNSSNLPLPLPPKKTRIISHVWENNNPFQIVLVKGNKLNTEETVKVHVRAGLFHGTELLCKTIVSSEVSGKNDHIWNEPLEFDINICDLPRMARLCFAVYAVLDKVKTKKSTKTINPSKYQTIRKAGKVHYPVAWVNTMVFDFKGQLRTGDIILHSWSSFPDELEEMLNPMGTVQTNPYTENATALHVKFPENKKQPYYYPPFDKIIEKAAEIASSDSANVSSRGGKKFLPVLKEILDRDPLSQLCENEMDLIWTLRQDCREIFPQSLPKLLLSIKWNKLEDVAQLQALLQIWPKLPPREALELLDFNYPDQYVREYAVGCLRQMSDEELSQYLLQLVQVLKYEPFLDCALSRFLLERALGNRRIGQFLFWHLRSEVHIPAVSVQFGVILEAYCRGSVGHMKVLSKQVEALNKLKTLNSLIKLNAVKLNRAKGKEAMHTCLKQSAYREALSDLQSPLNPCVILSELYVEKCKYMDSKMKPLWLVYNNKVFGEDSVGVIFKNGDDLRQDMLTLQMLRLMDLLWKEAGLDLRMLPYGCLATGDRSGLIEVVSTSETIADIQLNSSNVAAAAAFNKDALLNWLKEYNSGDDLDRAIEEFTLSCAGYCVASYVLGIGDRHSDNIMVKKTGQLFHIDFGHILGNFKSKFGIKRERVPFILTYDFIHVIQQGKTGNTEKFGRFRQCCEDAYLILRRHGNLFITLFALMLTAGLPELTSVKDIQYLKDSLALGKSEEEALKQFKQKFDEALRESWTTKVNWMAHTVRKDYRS
PI3Kβ, sequence (P27986 whole entry partner, species assumed): as the sequence (P27986 whole entry partner) above
PI3Kα, sequence (P42336 whole entry, species assumed): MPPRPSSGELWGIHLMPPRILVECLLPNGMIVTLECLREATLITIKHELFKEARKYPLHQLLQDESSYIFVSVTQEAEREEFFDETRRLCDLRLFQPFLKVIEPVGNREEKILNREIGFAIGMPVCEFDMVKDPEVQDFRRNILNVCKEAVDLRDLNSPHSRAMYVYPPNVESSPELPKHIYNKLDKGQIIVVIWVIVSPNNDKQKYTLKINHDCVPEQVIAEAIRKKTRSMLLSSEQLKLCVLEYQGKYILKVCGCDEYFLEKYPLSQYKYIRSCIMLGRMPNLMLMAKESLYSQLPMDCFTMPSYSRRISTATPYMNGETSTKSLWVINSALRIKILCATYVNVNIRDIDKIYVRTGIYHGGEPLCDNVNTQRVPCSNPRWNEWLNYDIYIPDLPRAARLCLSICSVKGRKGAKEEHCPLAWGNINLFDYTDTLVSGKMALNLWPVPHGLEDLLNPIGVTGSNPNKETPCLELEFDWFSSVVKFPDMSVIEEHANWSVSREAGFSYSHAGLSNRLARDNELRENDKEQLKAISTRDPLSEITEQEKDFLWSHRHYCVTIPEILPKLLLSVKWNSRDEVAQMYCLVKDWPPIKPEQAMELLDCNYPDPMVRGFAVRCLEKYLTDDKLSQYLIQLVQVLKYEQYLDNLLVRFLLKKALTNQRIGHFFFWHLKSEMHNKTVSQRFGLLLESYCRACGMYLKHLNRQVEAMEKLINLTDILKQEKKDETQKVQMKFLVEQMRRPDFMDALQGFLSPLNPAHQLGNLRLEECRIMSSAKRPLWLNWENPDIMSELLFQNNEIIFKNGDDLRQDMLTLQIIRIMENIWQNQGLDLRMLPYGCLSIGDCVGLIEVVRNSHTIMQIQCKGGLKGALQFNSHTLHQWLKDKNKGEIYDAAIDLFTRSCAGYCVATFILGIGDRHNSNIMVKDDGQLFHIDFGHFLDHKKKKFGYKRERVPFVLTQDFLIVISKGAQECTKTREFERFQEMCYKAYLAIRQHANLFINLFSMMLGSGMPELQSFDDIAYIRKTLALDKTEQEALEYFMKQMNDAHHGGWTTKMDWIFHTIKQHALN
PI3Kα, sequence (P27986 whole entry partner, species assumed): as the sequence (P27986 whole entry partner) above

- IC50 [1]: 3.16 µM
- IC50 [2]: 5.01 µM
- IC50 [3]: 15.8 µM
- Additional adducts on PI3Kδ ([4]; 10:1 inhibitor:protein ratio, after 20 h (overnight)): no additional adducts
- Covalent modification of PI3Kδ (protein mass spectrometry) ([4]; 10:1 inhibitor:protein, incubated overnight): covalently modified
- Recovery of enzyme activity after jump dilution [5]: No recovery of activity
Compound: COc1ncc(-c2cc(-c3ncc(CN4CCN(C(C)C)CC4)o3)c3cn[nH]c3c2)cc1C(=O)Oc1ccc(F)cc1 [Example 7, 4-Fluorophenyl 5-(4-(5-((4-isopropylpiperazin-1-yl)methyl)oxazol-2-yl)-1H-indazol-6-yl)-2-methoxynicotinate]
- Adduct formation after preincubation of enzyme with potent ATP-competitive inhibitor ([4]; competitor 10:1 for 15 min, then 2 equivalents of covalent inhibitor, quenched at 5 min): prevented covalent modification; also recorded: attentuated formation of this adduct
- Duration of action at PI3Kδ in CD4+ T cells [6]: at least 48 h
